Measurements published in publication PMC4419590 (ChemMedChem, 2014).

How the values were obtained:
[1] = tested on: HIV-1MDR/MM(R5); assay: microbe, parasite or virus in culture; format: cell-based; settings: for fold change of EC50 compared to wild-type HIV-1ERS104pre: number in parentheses
[2] = tested on: HIV-1MDR/G(X4); assay: microbe, parasite or virus in culture; format: cell-based; settings: for fold change of EC50 compared to wild-type HIV-1ERS104pre: number in parentheses
[3] = tested on: HIV-1MDR/B(X4); assay: microbe, parasite or virus in culture; format: cell-based; settings: for fold change of EC50 compared to wild-type HIV-1ERS104pre: number in parentheses
[4] = tested on: HIV-1ERS104pre (wild-type X4); assay: Antiviral activity in PHA-PBMs, p24 Gag production, wild-type clinical isolate; format: cell-based
[5] = tested on: MT-2 human T-lymphoid cells
[6] = tested on: HIV-1MDR/JSL(R5); assay: microbe, parasite or virus in culture; format: cell-based; settings: for fold change of EC50 compared to wild-type HIV-1ERS104pre: number in parentheses
[7] = tested on: HIV-1MDR/TM(X4); assay: microbe, parasite or virus in culture; format: cell-based; settings: for fold change of EC50 compared to wild-type HIV-1ERS104pre: number in parentheses
[8] = tested on: in vitro BBB model (rat astrocytes, pericytes and monkey endothelial cells)
[9] = tested on: HIV-1MDR/C(X4); assay: microbe, parasite or virus in culture; format: cell-based; settings: for fold change of EC50 compared to wild-type HIV-1ERS104pre: number in parentheses
[10] = tested on: panel of six multidrug resistant clinical HIV-1 variants; assay: microbe, parasite or virus in culture; format: cell-based; settings: Human immunodeficiency virus 1, read-out: EC50 range across the panel
[11] = tested on: HIV-1LAI; assay: Antiviral activity in MT-2 cells exposed to HIV-1LAI, MTT assay; format: cell-based
[12] = In vitro blood-brain-barrier model, triple co-culture drug transport assay; settings: rat, monkey
[13] = PHA-PBMs, p24 Gag production, mean ± 1 SD
[14] = Human immunodeficiency virus 1, T-lymphoid, in Homo sapiens

| Compound | EC50 [1, 13] | fold change of EC50 compared to wild-type HIV-1ERS104pre [1] | EC50 [2, 13] | fold change of EC50 compared to wild-type HIV-1ERS104pre [2] | EC50 [3, 13] | fold change of EC50 compared to wild-type HIV-1ERS104pre [3] | EC50 [4, 13] | CC50 [5] | fold change of EC50 compared to wild-type HIV-1ERS104pre [6] | EC50 [7, 13] | fold change of EC50 compared to wild-type HIV-1ERS104pre [7] | Papp (apparent permeability coefficient) [8] | EC50 [9, 13] | fold change of EC50 compared to wild-type HIV-1ERS104pre [9] | EC50 ([1]; Human immunodeficiency virus 1) | EC50 ([2]; Human immunodeficiency virus 1) | EC50 ([6]; Human immunodeficiency virus 1) | EC50 ([9]; Human immunodeficiency virus 1) | EC50 [11, 14] | other results |
| --- | --- | --- | --- | --- | --- | --- | --- | --- | --- | --- | --- | --- | --- | --- | --- | --- | --- | --- | --- | --- |
| COc1ccc(S(=O)(=O)N(CC(C)C)C[C@@H](O)[C@H](Cc2ccccc2)NC(=O)OC2CO[C@H]3OCC(F)(F)[C@@H]23)cc1 (stereo partly drawn) [Inhibitor 3] | 21 ± 4 nM | 10 | 4 ± 1 nM | 2 | 14 ± 1 nM | 7 | 2.3 ± 0.1 nM | 17500 nM | 1 | 4 ± 1 nM | 2 | 50.38 ± 10.61 10^−6 cm/s | 2 ± 1 nM | 1 | – | – | – | – | – | EC50 [6, 13]: 2 ± 1 nM |
| CC(C)CN(C[C@@H](O)[C@H](Cc1ccccc1)NC(=O)O[C@H]1CCOC1)S(=O)(=O)c1ccc(N)cc1 [APV, amprenavir, reference compound] | – | 22 | – | 11 | – | 15 | – | – | 9 | – | 12 | – | – | 7 | 630 ± 9 nM | 310 ± 80 nM | 270 ± 10 nM | 210 ± 20 nM | – | EC50 ([3]; Human immunodeficiency virus 1): 490 ± 50 nM; EC50 [10]: 210 to 630 nM |
| CC(C)CN(C[C@@H](O)[C@H](Cc1ccccc1)NC(=O)O[C@H]1CO[C@H]2OCC(F)(F)[C@H]21)S(=O)(=O)c1ccc(N)cc1 [Inhibitor 4] | 20 ± 0.2 nM | 7 | 4 ± 1 nM | 1 | 11 ± 1 nM | 3 | 2.7 ± 0.3 nM | 37000 nM | 1 | 4 ± 1 nM | 2 | 60.84 ± 3.97 10^−6 cm/s | 2 ± 1 nM | 1 | – | – | – | – | – | EC50 ([11]; MT-2 human T-lymphoid cells exposed to HIVLAI): 3 nM |
| CC(C)(C)NC(=O)[C@@H]1C[C@@H]2CCCC[C@@H]2CN1C[C@@H](O)[C@H](Cc1ccccc1)NC(=O)[C@H](CC(N)=O)NC(=O)c1ccc2ccccc2n1 [saquinavir] | – | – | – | – | – | – | – | – | – | – | – | – | – | – | – | – | – | – | 21 nM | – |
| CC(C)CN(C[C@@H](O)[C@H](Cc1ccccc1)NC(=O)O[C@H]1CO[C@H]2OCC[C@H]21)S(=O)(=O)c1ccc(N)cc1 [Darunavir, darunavir, reference compound] | – | – | – | – | – | – | – | – | – | – | – | – | – | – | 25 ± 2 nM | 14 ± 9 nM | 10 ± 1 nM | 5 ± 1 nM | 5 nM | EC50 ([4]; Human immunodeficiency virus 1): 4 ± 1 nM; EC50 ([7]; Human immunodeficiency virus 1): 30 ± 10 nM; Papp at 30 min, 100 μM [12]: 9.32 ± 2.25 ×10⁻⁶ cm/s |
